Source: publication PMC9495681, “Examining Topoisomers of a Snake-Venom-Derived Peptide for Improved Antimicrobial and Antitumoral Properties” (Biomedicines, 2022)
Converted amounts (≈) assume the structure as drawn. Peptide text beside a SMILES is read from it.

What was measured:
[1] = test system: A. baumannii (ATCC 15308); assay: Minimal inhibitory concentration (MIC), broth microdilution; format: cell-based; conditions: Mueller Hinton Broth, 5 × 10^5 CFU/mL, 0.04% BSA and 0.002% acetic acid, 20–22 h at 37 °C, duplicate
Procedure: (§1) Assays were performed on three Gram-negative bacteria: E. coli (BW25113, Coli Genetic Stock Center), A. baumannii (ATCC 15308, CECT, Valencia, Spain), and Pseudomonas sp. (ATCC15915, CECT). The minimal inhibitory concentration (MIC) of each peptide was determined as described by Wiegand et al.. Peptide stocks in water were added to polypropylene 96-well plates (Greiner, Frickenhausen, Germany) and serially diluted from 100 to 0.2 μM. Fresh bacteria were incubated at 37 °C in Mueller Hinton Broth (MHB, Condalab, Torrejón de Ardoz, Spain) up to exponential growth and diluted to a final inoculum of 5 × 10^5 CFU/mL. BSA and acetic acid at 0.04% (w/v) and 0.002% (v/v) final concentration, respectively, were added to avoid peptide self-aggregation. Plates were incubated for 20–22 h at 37 °C. Each peptide was tested in duplicate. MIC values were the lowest peptide concentration where bacterial growth was not detected.

E. coli (BW25113) = assay: as above; format: cell-based; conditions: Mueller Hinton Broth, 5 × 10^5 CFU/mL, 0.04% BSA and 0.002% acetic acid, 20–22 h at 37 °C, duplicate
Procedure: as §1

[2] = test system: Pseudomonas sp. (ATCC15915); assay: as above; format: cell-based; conditions: Mueller Hinton Broth, 5 × 10^5 CFU/mL, 0.04% BSA and 0.002% acetic acid, 20–22 h at 37 °C, duplicate
Procedure: as §1

1BR3G human fibroblasts = assay: Peptide cytotoxicity (Cell Titer Blue viability); format: cell-based; conditions: 24 h treatment, medium with 2% FBS, Cell Titer Blue fluorescence, triplicate
Text: (§2) Human HeLa S3 (cervix epithelial carcinoma), leukemia Jurkat E6.1 (T-cell lineage), U937 (histiocytic lymphoma), THP-1 (acute monocytic leukemia), and 1BR3G human fibroblasts were obtained from the Cell Lines Repository of the Institut Municipal d’Investigació Medica (Barcelona, Spain). BxPC3 (pancreas adenocarcinoma), A549 (lung carcinoma), SH-Sy5Y (neuroblastoma), Panc1 (epithelioid carcinoma), 786-O (renal cell adenocarcinoma), and HT29 (colorectal adenocarcinoma) were obtained from the Integrative Biomedical Materials and Nanomedicine lab at UPF (Barcelona, Spain). HeLa S3, Jurkat E6.1, U937, THP-1, Panc1, and 786-O were cultured in Roswell Park Memorial Institute medium (RPMI) supplemented with 10% fetal bovine serum (FBS) and 1% penicillin/streptomycin solution and maintained at 37 °C in a humidified atmosphere with 5% of CO2. 1BR3G, BxPC3, A549, and HT29 were cultured in Dulbecco’s Modified Eagle’s Medium (DMEM) supplemented with 10% FBS and 1% penicillin/streptomycin solution and maintained at 37 °C in a humidified atmosphere with 5% of CO2. SH-Sy5Y was cultured in DMEM supplemented with 15% FBS and 1% penicillin/streptomycin and maintained at 37 °C in a humidified atmosphere with 5% of CO2. Cultures were maintained at 10^5–10^6 cell/mL densities. For 1BR3G human fibroblasts, BxPC3, A549, SH-Sy5Y, Panc1, 786-O, and HT29 were split every time they reached 80–90% of confluence after harvesting with PBS and trypsin.
(§3) About 60,000 cells were added to different microfuge tubes containing 2-fold serial dilution of the peptide, with a final concentration in the range between 0.1–100 μM in RPMI containing 2% of FBS. After 30 min incubation at 37 °C and 5% of CO2, […] of medium containing approximately 10,000 treated cells were transferred to a 96-well plate. Then, 15 μL of Cell Titer Blue dye (Promega, Madison, WI, USA) was added, and plates were reincubated for 24 h. Fluorescence was read at 4 and 24 h after dye addition in a Synergy HTX (BioTek, Winooski, VT, USA) reader, with λexc = 560 nm and λem = 620 nm. In the case of adherent cultures, 5000 cells/well were seeded in 96-well plates. After 24 h incubation at 37 °C and 5% of CO2, the medium was removed, and a new medium with 2% of FBS containing the various 2-fold dilution of the peptides was added. After a further 30 min, 15 μL of Cell Titer Blue dye was added to each well, and the measurement was done as above. Relative viability was calculated relative to a cell with only 2% FBS in the corresponding medium as a control (100% viability). All assays were conducted in triplicate.

human erythrocytes = assay: Hemolytic activity; format: cell-based; conditions: up to 100 μM; 4% (v/v) human erythrocytes in PBS, 30 min at 37 °C, OD 540 nm, triplicate
Procedure: Fresh human blood (10 mL) was collected in EDTA tubes and centrifuged at 1000× g for 10 min at 4 °C. After plasma removal, the pellet containing the erythrocytes was washed 3× with phosphate-buffered saline (PBS) and resuspended to an 8% (v/v) suspension in PBS. Then, 100 μL of the suspension was added to a final concentration of 4% (v/v) to microfuge tubs containing 2-fold serially diluted peptides (0.2–100 μM). The suspension was incubated for 30 min at 37 °C with agitation, then centrifuged for 2 min at 1000× g. The supernatant was transferred to 96-well plates, and hemoglobin was measured by OD at 540 nm in a Synergy HTX plate reader (BioTek). Positive and negative controls were 1% (v/v) Triton X-100 and untreated erythrocytes (4% v/v in PBS), respectively. Measurements were done in triplicate. Hemolysis was calculated as:(2) % Hemolysis=[OD540peptide]−[OD540PBS]/[OD540Triton]−[OD540PBS]·100

HeLa S3 = assay: Peptide cytotoxicity (Cell Titer Blue viability); format: cell-based, Human; conditions: peptide treatment 24 h, medium with 2% FBS, Cell Titer Blue fluorescence, triplicate
Text: as §2, §3

Jurkat E6.1 = assay: Peptide cytotoxicity (Cell Titer Blue viability); format: cell-based, Human; conditions: peptide treatment 24 h, medium with 2% FBS, Cell Titer Blue fluorescence, triplicate
Text: as §2, §3

SH-Sy5Y (neuroblastoma) = assay: Peptide cytotoxicity (Cell Titer Blue viability); format: cell-based, Human; conditions: peptide treatment 24 h, medium with 2% FBS, Cell Titer Blue fluorescence, triplicate
Text: as §2, §3

THP-1 = assay: Peptide cytotoxicity (Cell Titer Blue viability); format: cell-based, Human; conditions: peptide treatment 24 h, medium with 2% FBS, Cell Titer Blue fluorescence, triplicate
Text: as §2, §3

U937 = assay: Peptide cytotoxicity (Cell Titer Blue viability); format: cell-based, Human; conditions: peptide treatment 24 h, medium with 2% FBS, Cell Titer Blue fluorescence, triplicate
Text: as §2, §3

[3] = test system: BxPC3, A549, Panc1, 786-O, and HT29; assay: Peptide cytotoxicity (Cell Titer Blue viability), non-leukemia cell lines of Figure 2; format: cell-based, Human; conditions: peptide treatment 24 h, triplicate, read-out: IC50, other cancer cell lines (non-leukemia, other than SH-Sy5Y)
Text: Human HeLa S3 (cervix epithelial carcinoma), leukemia Jurkat E6.1 (T-cell lineage), U937 (histiocytic lymphoma), THP-1 (acute monocytic leukemia), and 1BR3G human fibroblasts were obtained from the Cell Lines Repository of the Institut Municipal d’Investigació Medica (Barcelona, Spain). BxPC3 (pancreas adenocarcinoma), A549 (lung carcinoma), SH-Sy5Y (neuroblastoma), Panc1 (epithelioid carcinoma), 786-O (renal cell adenocarcinoma), and HT29 (colorectal adenocarcinoma) were obtained from the Integrative Biomedical Materials and Nanomedicine lab at UPF (Barcelona, Spain). HeLa S3, Jurkat E6.1, U937, THP-1, Panc1, and 786-O were cultured in Roswell Park Memorial Institute medium (RPMI) supplemented with 10% fetal bovine serum (FBS) and 1% penicillin/streptomycin solution and maintained at 37 °C in a humidified atmosphere with 5% of CO2. […]
About 60,000 cells were added to different microfuge tubes containing 2-fold serial dilution of the peptide, with a final concentration in the range between 0.1–100 μM in RPMI containing 2% of FBS. […] Fluorescence was read at 4 and 24 h after dye addition in a Synergy HTX (BioTek, Winooski, VT, USA) reader, with λexc = 560 nm and λem = 620 nm. […] Relative viability was calculated relative to a cell with only 2% FBS in the corresponding medium as a control (100% viability). […]

## CC[C@H](C)[C@H](NC(=O)[C@H](CCCCN)NC(=O)[C@H](CCCCN)NC(=O)[C@H](CC(C)C)NC(=O)[C@H](CCCNC(=N)N)NC(=O)[C@H](CCCCN)NC(=O)[C@@H](N)CCCCN)C(=O)N[C@@H](Cc1ccccc1)C(=O)N[C@@H](CCCCN)C(=O)N[C@@H](CCCCN)C(=O)N1CCC[C@H]1C(=O)N[C@@H](CCSC)C(=O)N[C@H](C(=O)N[C@H](C(=O)NCC(=O)N[C@H](C(=O)N[C@H](C(=O)N[C@H](C(=O)N1CCC[C@H]1C(=O)N[C@@H](Cc1ccccc1)C(N)=O)[C@@H](C)CC)[C@@H](C)O)C(C)C)[C@@H](C)CC)C(C)C [Ctn[15-34]] (H-KKRLKKIFKKPMVIGVTIPF-NH2)
[1]
  MIC A. baumannii: 0.78 µM (≈ 1.85 µg/mL)
E. coli (BW25113)
  MIC E. coli: <0.005 µM
[2]
  MIC Pseudomonas sp.: <0.05 µM
1BR3G human fibroblasts
  IC50 (cell viability) human fibroblast 1BR3G: ≈ 14.32 μM
Human erythrocytes
  Hemolytic effect (in words): totally nonhemolytic

## CC[C@H](C)[C@H](NC(=O)[C@H](CCCCN)NC(=O)[C@H](CCCCN)NC(=O)[C@H](CC(C)C)NC(=O)[C@H](CCCNC(=N)N)NC(=O)[C@H](CCCCN)NC(=O)[C@H](CCCCN)NC(=O)[C@@H](NC(=O)[C@H](CO)NC(=O)[C@H](CCCCN)NC(=O)[C@H](CCCCN)NC(=O)[C@@H](NC(=O)[C@H](CCCCN)NC(=O)[C@H](CCCCN)NC(=O)[C@H](Cc1ccccc1)NC(=O)[C@H](Cc1ccccc1)NC(=O)[C@H](CCCCN)NC(=O)[C@H](CCCCN)NC(=O)[C@H](Cc1ccccc1)NC(=O)[C@H](CCCNC(=N)N)NC(=O)[C@@H](N)CCCCN)C(C)C)C(C)C)C(=O)N[C@@H](Cc1ccccc1)C(=O)N[C@@H](CCCCN)C(=O)N[C@@H](CCCCN)C(=O)N1CCC[C@H]1C(=O)N[C@@H](CCSC)C(=O)N[C@H](C(=O)N[C@H](C(=O)NCC(=O)N[C@H](C(=O)N[C@H](C(=O)N[C@H](C(=O)N1CCC[C@H]1C(=O)N[C@@H](Cc1ccccc1)C(N)=O)[C@@H](C)CC)[C@@H](C)O)C(C)C)[C@@H](C)CC)C(C)C [Ctn] (H-KRFKKFFKKVKKSVKKRLKKIFKKPMVIGVTIPF-NH2)
[1]
  MIC A. baumannii: 0.78 µM (≈ 3.24 µg/mL)
[2]
  MIC Pseudomonas sp.: <0.05 µM
HeLa S3
  IC50: ~3470 nM
Jurkat E6.1
  IC50: < 1000 nM
SH-Sy5Y (neuroblastoma)
  IC50: ~2610 nM
THP-1
  IC50: < 1000 nM
U937
  IC50: < 1000 nM
[3]
  IC50: ≥ 10000 nM
